ChEMBL document CHEMBL1152560, “Substituted 2-arylbenzothiazoles as kinase inhibitors: hit-to-lead optimization” (Bioorg Med Chem, 2009)

Assays:
[1] = test system: Fibroblast growth factor receptor 1 (Homo sapiens), P11362 [V561M]; experiment: Residual activity of FGFR1 V561M mutant at 1 uM by microplate scintillation counting
[2] = target: T1, Lymphokine-activated killer T-cell-originated protein kinase (Homo sapiens) (UniProt Q96KB5); experiment: Residual activity of PBK at 1 uM by microplate scintillation counting
T1 sequence (whole entry): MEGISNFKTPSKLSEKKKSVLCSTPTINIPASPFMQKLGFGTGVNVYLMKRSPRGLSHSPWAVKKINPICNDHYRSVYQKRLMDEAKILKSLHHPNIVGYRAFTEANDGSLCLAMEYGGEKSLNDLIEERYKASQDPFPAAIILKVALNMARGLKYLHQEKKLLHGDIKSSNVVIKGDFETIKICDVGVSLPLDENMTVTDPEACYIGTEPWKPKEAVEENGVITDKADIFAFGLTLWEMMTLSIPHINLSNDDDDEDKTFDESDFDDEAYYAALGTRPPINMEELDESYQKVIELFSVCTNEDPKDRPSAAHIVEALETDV

[3] = target: Rho-associated protein kinase 2 (Homo sapiens) (UniProt O75116); experiment: Residual activity of ROCK2 at 1 uM by microplate scintillation counting
[4] = target: T2, Serine/threonine-protein kinase Sgk3 (Homo sapiens) (UniProt Q96BR1); experiment: Residual activity of SGK3 at 1 uM by microplate scintillation counting
T2 sequence (whole entry): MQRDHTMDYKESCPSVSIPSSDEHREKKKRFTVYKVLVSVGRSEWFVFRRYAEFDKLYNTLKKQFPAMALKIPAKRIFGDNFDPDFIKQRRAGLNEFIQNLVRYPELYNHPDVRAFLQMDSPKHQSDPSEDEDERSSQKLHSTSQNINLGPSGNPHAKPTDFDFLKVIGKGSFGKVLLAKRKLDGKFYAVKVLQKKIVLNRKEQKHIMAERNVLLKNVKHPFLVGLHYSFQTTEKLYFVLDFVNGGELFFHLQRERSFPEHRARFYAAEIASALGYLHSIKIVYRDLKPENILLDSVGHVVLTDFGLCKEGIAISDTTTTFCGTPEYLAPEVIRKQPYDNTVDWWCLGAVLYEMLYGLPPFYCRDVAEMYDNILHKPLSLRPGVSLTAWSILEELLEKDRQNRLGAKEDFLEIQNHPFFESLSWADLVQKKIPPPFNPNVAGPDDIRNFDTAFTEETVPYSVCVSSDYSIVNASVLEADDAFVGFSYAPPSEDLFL

[5] = target: T3, Tyrosine-protein kinase receptor TYRO3 (Homo sapiens) (UniProt Q06418); experiment: Residual activity of TYRO3 at 1 uM by microplate scintillation counting
T3 sequence (whole entry): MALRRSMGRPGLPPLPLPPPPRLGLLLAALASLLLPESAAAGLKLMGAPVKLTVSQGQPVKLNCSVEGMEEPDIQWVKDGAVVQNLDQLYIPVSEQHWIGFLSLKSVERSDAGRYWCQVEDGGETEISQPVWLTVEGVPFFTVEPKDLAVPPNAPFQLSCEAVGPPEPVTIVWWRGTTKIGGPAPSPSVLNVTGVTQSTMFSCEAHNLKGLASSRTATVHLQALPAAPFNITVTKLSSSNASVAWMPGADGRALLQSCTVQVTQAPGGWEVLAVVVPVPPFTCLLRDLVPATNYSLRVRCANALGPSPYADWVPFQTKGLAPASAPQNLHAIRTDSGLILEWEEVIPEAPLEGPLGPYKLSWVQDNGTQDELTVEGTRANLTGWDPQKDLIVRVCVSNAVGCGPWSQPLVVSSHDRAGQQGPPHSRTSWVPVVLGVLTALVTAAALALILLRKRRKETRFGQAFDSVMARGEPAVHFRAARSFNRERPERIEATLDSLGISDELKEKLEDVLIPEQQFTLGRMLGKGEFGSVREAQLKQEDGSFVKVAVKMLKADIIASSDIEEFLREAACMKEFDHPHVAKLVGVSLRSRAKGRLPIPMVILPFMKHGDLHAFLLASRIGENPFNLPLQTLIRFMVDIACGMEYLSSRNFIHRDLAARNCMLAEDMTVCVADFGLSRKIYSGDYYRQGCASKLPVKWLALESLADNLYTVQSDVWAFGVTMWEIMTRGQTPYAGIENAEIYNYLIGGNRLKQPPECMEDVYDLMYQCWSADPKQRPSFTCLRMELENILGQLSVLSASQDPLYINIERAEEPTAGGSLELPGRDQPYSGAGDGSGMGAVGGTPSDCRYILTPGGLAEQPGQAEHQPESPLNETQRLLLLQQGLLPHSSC

[6] = target: Glycogen synthase kinase-3 beta (Homo sapiens) (UniProt P49841); experiment: Residual activity of GSK3-beta at 10 uM by microplate scintillation counting
[7] = target: T4, Aurora kinase C (Homo sapiens) (UniProt Q9UQB9); experiment: Residual activity of Aurora-C at 1 uM by microplate scintillation counting
T4 sequence (whole entry): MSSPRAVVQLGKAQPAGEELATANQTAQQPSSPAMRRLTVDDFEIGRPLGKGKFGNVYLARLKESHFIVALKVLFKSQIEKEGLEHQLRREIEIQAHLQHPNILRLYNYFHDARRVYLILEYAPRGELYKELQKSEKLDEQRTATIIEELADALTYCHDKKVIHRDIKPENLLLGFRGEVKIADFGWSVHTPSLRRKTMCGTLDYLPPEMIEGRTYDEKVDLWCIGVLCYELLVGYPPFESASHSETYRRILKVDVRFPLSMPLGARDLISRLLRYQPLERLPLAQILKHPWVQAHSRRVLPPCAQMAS

[8] = target: Serine/threonine-protein kinase MRCK beta (Homo sapiens) (UniProt Q9Y5S2); experiment: Residual activity of CDC42BPB at 1 uM by microplate scintillation counting
[9] = target: Activin receptor type-1-like (Homo sapiens) (UniProt P37023); experiment: Residual activity of ACV-RL1 at 0.1 uM by microplate scintillation counting
Sequence of Activin receptor type-1-like (Homo sapiens) (P37023 whole entry): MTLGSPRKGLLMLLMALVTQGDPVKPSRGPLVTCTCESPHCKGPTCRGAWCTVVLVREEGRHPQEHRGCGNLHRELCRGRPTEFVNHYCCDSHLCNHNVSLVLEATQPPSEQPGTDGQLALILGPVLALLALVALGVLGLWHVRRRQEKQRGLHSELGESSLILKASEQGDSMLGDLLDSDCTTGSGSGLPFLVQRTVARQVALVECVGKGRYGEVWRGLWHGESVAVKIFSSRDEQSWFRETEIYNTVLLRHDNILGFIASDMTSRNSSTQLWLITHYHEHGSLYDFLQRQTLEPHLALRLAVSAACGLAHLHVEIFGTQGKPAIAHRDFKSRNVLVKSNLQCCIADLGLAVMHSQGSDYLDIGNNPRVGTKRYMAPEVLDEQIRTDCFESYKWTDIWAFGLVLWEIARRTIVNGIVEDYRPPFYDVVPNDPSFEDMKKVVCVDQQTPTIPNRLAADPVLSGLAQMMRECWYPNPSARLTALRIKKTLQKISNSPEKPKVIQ

Sequence of Glycogen synthase kinase-3 beta (Homo sapiens) (P49841 whole entry, looked up): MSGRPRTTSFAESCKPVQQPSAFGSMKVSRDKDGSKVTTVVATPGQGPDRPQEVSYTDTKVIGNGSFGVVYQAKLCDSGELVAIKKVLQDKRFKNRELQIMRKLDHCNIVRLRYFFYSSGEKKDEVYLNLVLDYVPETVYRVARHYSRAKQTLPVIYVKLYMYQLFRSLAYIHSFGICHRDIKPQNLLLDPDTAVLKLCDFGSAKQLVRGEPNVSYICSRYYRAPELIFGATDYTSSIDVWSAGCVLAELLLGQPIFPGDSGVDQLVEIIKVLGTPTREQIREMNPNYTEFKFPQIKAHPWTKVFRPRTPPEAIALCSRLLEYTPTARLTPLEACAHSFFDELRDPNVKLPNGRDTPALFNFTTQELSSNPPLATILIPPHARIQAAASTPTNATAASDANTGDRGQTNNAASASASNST
Sequence of Serine/threonine-protein kinase MRCK beta (Homo sapiens) (Q9Y5S2 whole entry): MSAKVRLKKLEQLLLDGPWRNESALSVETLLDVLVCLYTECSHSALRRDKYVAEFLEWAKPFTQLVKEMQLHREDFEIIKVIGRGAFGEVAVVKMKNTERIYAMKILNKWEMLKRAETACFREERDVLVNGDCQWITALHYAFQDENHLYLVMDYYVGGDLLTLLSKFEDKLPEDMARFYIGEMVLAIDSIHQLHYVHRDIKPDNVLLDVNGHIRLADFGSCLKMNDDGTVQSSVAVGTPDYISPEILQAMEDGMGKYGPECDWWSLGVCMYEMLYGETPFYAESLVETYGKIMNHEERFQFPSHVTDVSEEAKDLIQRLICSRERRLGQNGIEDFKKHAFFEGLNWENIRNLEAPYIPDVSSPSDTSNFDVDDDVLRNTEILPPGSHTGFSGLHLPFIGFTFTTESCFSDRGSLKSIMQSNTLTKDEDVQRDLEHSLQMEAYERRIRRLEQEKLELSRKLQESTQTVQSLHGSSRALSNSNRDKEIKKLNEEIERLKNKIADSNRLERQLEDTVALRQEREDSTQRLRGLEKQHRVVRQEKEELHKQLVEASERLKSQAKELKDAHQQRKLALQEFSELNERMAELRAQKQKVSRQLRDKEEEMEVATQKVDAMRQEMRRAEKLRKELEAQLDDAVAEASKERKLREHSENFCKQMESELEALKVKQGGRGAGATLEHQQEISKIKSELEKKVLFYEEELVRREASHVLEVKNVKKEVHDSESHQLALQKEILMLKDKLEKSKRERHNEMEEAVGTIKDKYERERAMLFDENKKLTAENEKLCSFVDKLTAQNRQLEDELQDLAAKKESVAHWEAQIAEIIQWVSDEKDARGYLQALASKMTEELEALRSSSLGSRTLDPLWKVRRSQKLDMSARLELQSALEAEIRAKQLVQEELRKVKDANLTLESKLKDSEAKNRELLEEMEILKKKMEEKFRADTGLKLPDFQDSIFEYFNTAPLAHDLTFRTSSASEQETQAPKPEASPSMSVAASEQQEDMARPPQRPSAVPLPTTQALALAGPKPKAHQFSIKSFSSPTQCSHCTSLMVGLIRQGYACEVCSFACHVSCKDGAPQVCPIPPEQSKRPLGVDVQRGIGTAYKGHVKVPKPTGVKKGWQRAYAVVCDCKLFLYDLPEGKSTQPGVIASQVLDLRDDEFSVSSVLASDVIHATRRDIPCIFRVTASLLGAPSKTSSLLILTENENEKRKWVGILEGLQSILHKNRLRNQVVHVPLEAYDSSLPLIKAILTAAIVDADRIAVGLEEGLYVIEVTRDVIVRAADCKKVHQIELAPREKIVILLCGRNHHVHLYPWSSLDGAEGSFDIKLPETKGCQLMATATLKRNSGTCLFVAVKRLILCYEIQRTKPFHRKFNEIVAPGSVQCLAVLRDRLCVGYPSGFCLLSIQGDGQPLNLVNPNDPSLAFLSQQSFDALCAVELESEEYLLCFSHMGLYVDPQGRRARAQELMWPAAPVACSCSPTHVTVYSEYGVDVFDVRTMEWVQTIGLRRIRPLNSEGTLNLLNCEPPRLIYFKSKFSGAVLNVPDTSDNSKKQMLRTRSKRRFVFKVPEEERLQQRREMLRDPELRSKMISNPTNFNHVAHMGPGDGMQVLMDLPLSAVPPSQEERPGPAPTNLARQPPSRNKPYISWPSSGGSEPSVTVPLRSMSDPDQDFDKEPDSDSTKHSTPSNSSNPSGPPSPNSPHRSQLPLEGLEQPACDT
Sequence of Rho-associated protein kinase 2 (Homo sapiens) (O75116 whole entry, looked up): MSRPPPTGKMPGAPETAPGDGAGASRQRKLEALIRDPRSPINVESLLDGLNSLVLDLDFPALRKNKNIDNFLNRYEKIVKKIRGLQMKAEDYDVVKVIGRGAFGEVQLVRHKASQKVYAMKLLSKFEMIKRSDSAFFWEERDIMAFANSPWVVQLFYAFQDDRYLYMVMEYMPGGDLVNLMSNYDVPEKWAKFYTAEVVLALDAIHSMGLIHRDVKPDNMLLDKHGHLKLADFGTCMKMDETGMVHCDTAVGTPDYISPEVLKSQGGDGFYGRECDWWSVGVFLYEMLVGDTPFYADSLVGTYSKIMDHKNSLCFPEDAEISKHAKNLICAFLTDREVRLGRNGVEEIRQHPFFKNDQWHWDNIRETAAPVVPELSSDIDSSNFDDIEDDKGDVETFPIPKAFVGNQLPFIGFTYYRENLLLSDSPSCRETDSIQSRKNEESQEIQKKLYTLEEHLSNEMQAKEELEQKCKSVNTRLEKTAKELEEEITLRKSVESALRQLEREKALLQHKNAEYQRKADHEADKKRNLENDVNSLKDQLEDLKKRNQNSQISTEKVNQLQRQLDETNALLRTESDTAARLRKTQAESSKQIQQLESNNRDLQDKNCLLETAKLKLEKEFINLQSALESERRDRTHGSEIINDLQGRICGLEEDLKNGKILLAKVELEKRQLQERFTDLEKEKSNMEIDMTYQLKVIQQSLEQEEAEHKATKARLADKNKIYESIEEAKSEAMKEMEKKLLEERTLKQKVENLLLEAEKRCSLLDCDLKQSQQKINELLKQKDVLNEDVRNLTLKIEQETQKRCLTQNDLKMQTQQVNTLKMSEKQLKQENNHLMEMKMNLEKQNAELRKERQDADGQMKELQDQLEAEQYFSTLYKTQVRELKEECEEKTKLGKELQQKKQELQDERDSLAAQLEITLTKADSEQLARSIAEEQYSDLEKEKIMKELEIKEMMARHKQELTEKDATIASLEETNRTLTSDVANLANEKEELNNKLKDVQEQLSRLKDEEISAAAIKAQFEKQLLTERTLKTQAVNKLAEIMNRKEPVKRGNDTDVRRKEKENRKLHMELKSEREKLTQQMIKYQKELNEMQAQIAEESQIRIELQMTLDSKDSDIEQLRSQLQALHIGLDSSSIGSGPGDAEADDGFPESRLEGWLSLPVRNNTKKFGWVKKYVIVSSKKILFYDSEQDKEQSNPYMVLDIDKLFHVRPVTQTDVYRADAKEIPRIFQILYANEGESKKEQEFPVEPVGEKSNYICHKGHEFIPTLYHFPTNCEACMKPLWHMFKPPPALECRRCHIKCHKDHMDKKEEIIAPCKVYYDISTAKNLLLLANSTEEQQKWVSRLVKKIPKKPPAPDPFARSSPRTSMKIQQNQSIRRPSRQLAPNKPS
Sequence of Fibroblast growth factor receptor 1 (Homo sapiens), P11362 [V561M] (P11362 whole entry V561M): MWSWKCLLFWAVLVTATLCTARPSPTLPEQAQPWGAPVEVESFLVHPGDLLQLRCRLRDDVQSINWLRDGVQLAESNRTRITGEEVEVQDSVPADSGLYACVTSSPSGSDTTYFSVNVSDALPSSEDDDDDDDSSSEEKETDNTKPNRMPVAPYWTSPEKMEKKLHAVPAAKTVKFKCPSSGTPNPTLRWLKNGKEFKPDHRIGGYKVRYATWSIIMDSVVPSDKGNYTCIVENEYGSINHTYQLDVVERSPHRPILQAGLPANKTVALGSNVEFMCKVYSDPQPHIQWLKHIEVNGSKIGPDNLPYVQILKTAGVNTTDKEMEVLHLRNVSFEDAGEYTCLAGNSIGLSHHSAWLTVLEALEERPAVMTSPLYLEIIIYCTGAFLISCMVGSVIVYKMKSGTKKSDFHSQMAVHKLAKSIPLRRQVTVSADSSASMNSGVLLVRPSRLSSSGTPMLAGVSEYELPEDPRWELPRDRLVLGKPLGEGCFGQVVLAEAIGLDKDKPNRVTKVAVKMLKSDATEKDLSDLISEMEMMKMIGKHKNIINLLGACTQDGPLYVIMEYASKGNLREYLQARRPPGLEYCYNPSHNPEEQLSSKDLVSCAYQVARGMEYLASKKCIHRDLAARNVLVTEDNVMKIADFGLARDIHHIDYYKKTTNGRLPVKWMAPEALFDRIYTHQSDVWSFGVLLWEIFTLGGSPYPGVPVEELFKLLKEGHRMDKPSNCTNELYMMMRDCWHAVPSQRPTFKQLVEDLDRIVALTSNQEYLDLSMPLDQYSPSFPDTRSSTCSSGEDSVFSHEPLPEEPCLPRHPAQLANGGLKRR

| SMILES | residual activity [1] [%] | residual activity [2] [%] | residual activity [3] [%] | residual activity [4] [%] | residual activity [5] [%] | residual activity [6] [%] | residual activity [7] [%] | residual activity [8] [%] | residual activity [9] [%] |
| --- | --- | --- | --- | --- | --- | --- | --- | --- | --- |
| COc1cc2c(Oc3ccc(-c4nc5ccccc5s4)cc3)ncnc2cc1OCCCN1CCN(C)CC1 | 103 | 100 | 101 | 91 | 100 | 123 | 11 | 100 | 91 |
| COc1cc2c(Oc3ccc(-c4nc5ccccc5s4)cc3F)ncnc2cc1OCCCN1CCN(C)CC1 | 93 | 96 | 93 | 94 | 103 | 98 | 10 | 90 | 92 |
| COc1cc2c(Oc3ccc(-c4nc5ccccc5s4)cc3)ncnc2cc1OCCCN1CCCC1 | 102 | 103 | 93 | 110 | 103 | 104 | 7 | 99 | 96 |
